# Source: US20120065267A1, “COMPOSITIONS INCLUDING 3,5-L-T2 AND METHODS OF USE THEREOF” (priority 2010, published 2012)
# Several values for one entry are separate records, joined by “and”; a condition that tells them apart may be missing. Equal entries are not always repeated.
# Assay: Body weight of mice on Western Diet given low or high dose T2
# Type: in vivo
# Description: This corresponds to a dosage for an 80 kg human of about 20-200 mg/day, or a low dose of about 0.2-0.3 mg/kg of body weight to a high dose of about 2-3 mg/kg of body weight. One will appreciate, however, that some subjects (e.g., subjects having very low LDL receptor function) may receive higher doses, depending on need. likewise, some subjects may receive lower doses, which again depends on need. Mice in the study were fed a standard lab chow referred to as the “Western Diet.” The overall level of fat and the saturated nature of the fat are representative diets typical in the industrialized west that are linked to risk of cardiovascular disease in humans. The formula is used primarily with genetically manipulated rodent models that are susceptible to high cholesterol and cardiovascular disease. The diet may also be useful in diet-induced obesity, diabetes, and metabolic syndrome models. High cholesterol, obesity, and diabetes are each associated increased risk for cardiovascular disease. The composition of the Western Diet is shown below. C57 is a wild-type strain, LDLr+/− are a strain carrying one functional copy of the LDLr gene, and the LDLr0 animals are total LDLr knockouts. The LDLr gene encodes for the LDL receptor protein, which is responsible for scavenging LDL with bound cholesterol from the blood and transporting it into cells. Both heterozygous and homozygous LDLr knockout animals develop very high serum cholesterol levels and are considered to be a good model for heterozygous and homozygous familial hypercholesterolemia in humans. […] LDLr knockout animals have zero LDL receptor function.
smiles,measurement,setting,value
"N[C@@H](Cc1cc(I)c(Oc2ccc(O)cc2)c(I)c1)C(=O)O [T2, (2S)-2-amino-3-[4-(4-hydroxyphenoxy)-3,5-diiodophenyl]propanoic acid]",Body weight (Ave),"C57 mice, High Dose T2 2.5 mg/kg daily oral, Day 1, group average",28.1 g
same,Body weight,"C57 mice, High Dose T2 2.5 mg/kg daily oral, Day 1, individual animal, 2.5 mg/kg",29.6 (2×) and 24.9 and 29.8 and 26.7
same,Body weight (Ave),"C57 mice, High Dose T2 2.5 mg/kg daily oral, Day 2, group average",28.4 g
same,Body weight,"C57 mice, High Dose T2 2.5 mg/kg daily oral, Day 2, individual animal, 2.5 mg/kg, in g (unit assumed)",29.5 and 30.1 and 25.8 and 29.7 and 27.1
same,Body weight (Ave),"C57 mice, High Dose T2 2.5 mg/kg daily oral, Day 3, group average",28.4 g
same,Body weight,"C57 mice, High Dose T2 2.5 mg/kg daily oral, Day 3, individual animal, 2.5 mg/kg, in g (unit assumed)",29.8 and 30.0 and 25.1 and 29.9 and 27.2
same,Body weight (Ave),"C57 mice, High Dose T2 2.5 mg/kg daily oral, Day 4, group average",27.4 g
same,Body weight,"C57 mice, High Dose T2 2.5 mg/kg daily oral, Day 4, individual animal, 2.5 mg/kg, in g (unit assumed)",29.1 and 28.7 and 23.4 and 28.8 and 27
same,Body weight (Ave),"C57 mice, High Dose T2 2.5 mg/kg daily oral, Day 5, group average",27.7 g
same,Body weight,"C57 mice, High Dose T2 2.5 mg/kg daily oral, Day 5, individual animal, 2.5 mg/kg, in g (unit assumed)",29.7 and 29.1 and 24.1 and 28.5 and 27.3
same,Body weight (Ave),"C57 mice, Low Dose T2 0.25 mg/kg daily oral, Day 1, group average",25.2 g
same,Body weight,"C57 mice, Low Dose T2 0.25 mg/kg daily oral, Day 1, individual animal, 0.25 mg/kg, in g (unit assumed)",26.5 and 27.0 and 23.0 and 26.4 and 24.0 and 24.1
same,Body weight (Ave),"C57 mice, Low Dose T2 0.25 mg/kg daily oral, Day 2, group average",26.1 g
same,Body weight,"C57 mice, Low Dose T2 0.25 mg/kg daily oral, Day 2, individual animal, 0.25 mg/kg, in g (unit assumed)",28.2 and 27.7 and 24.1 and 26.3 and 25.5 and 24.9
same,Body weight (Ave),"C57 mice, Low Dose T2 0.25 mg/kg daily oral, Day 3, group average",26.5 g
same,Body weight,"C57 mice, Low Dose T2 0.25 mg/kg daily oral, Day 3, individual animal, 0.25 mg/kg, in g (unit assumed)",28.3 and 27.8 and 23.3 and 27.9 and 26.2 and 25.6
same,Body weight (Ave),"C57 mice, Low Dose T2 0.25 mg/kg daily oral, Day 4, group average",25.8 g
same,Body weight,"C57 mice, Low Dose T2 0.25 mg/kg daily oral, Day 4, individual animal, 0.25 mg/kg, in g (unit assumed)",26.8 and 27.2 and 23.7 and 26.7 and 25.1 and 25.4
same,Body weight (Ave),"C57 mice, Low Dose T2 0.25 mg/kg daily oral, Day 5, group average",26.8 g
same,Body weight,"C57 mice, Low Dose T2 0.25 mg/kg daily oral, Day 5, individual animal, 0.25 mg/kg, in g (unit assumed)",27.3 and 28.3 and 24.5 and 27.5 and 26.4
same,Body weight (Ave),"C57 mice, Low Dose T2 0.25 mg/kg daily oral, Day 6, group average",27.5 g
same,Body weight,"C57 mice, Low Dose T2 0.25 mg/kg daily oral, Day 6, individual animal, 0.25 mg/kg, in g (unit assumed)",28.1 and 29.9 and 24.8 and 28.7 and 26.1
same,Body weight (Ave),"C57 mice, Low Dose T2 0.25 mg/kg daily oral, Day 7, group average",28.3 g
same,Body weight,"C57 mice, Low Dose T2 0.25 mg/kg daily oral, Day 7, individual animal, 0.25 mg/kg, in g (unit assumed)",29.5 and 30.7 and 26.2 and 29.0 and 26.1
same,Body weight (Ave),"LDLr0 mice, High Dose T2 2.5 mg/kg daily oral, Day 1, group average",25.7 g
same,Body weight,"LDLr0 mice, High Dose T2 2.5 mg/kg daily oral, Day 1, individual animal, 2.5 mg/kg, in g (unit assumed)",23.9 and 27.4
same,Body weight (Ave),"LDLr0 mice, High Dose T2 2.5 mg/kg daily oral, Day 2, group average",24 g
same,Body weight,"LDLr0 mice, High Dose T2 2.5 mg/kg daily oral, Day 2, individual animal, 2.5 mg/kg, in g (unit assumed)",23.1 and 24.8
same,Body weight (Ave),"LDLr0 mice, High Dose T2 2.5 mg/kg daily oral, Day 3, group average",23.9 g
same,Body weight,"LDLr0 mice, High Dose T2 2.5 mg/kg daily oral, Day 3, individual animal, 2.5 mg/kg, in g (unit assumed)",22.8 and 24.9
same,Body weight (Ave),"LDLr0 mice, High Dose T2 2.5 mg/kg daily oral, Day 4, group average",24.2 g
same,Body weight,"LDLr0 mice, High Dose T2 2.5 mg/kg daily oral, Day 4, individual animal, 2.5 mg/kg, in g (unit assumed)",23.5 and 24.8
same,Body weight (Ave),"LDLr0 mice, High Dose T2 2.5 mg/kg daily oral, Day 5, group average",24.2 g
same,Body weight,"LDLr0 mice, High Dose T2 2.5 mg/kg daily oral, Day 5, individual animal, 2.5 mg/kg, in g (unit assumed)",23.1 and 25.3
same,Body weight (Ave),"LDLr0 mice, Low Dose T2 0.25 mg/kg daily oral, Day 1, group average",22.3 g
same,Body weight,"LDLr0 mice, Low Dose T2 0.25 mg/kg daily oral, Day 1, individual animal, 0.25 mg/kg, in g (unit assumed)",23.1 and 21.1 and 22.7 and 22.1
same,Body weight (Ave),"LDLr0 mice, Low Dose T2 0.25 mg/kg daily oral, Day 2, group average",22.8 g
same,Body weight,"LDLr0 mice, Low Dose T2 0.25 mg/kg daily oral, Day 2, individual animal, 0.25 mg/kg, in g (unit assumed)",21.6 and 23.6 and 23.2
same,Body weight (Ave),"LDLr0 mice, Low Dose T2 0.25 mg/kg daily oral, Day 3, group average",23.4 g
same,Body weight,"LDLr0 mice, Low Dose T2 0.25 mg/kg daily oral, Day 3, individual animal, 0.25 mg/kg, in g (unit assumed)",22.3 and 24.4 and 23.5
same,Body weight (Ave),"LDLr0 mice, Low Dose T2 0.25 mg/kg daily oral, Day 4, group average",22.3 g
same,Body weight,"LDLr0 mice, Low Dose T2 0.25 mg/kg daily oral, Day 4, individual animal, 0.25 mg/kg, in g (unit assumed)",21.2 and 22.9 and 22.8
same,Body weight (Ave),"LDLr0 mice, Low Dose T2 0.25 mg/kg daily oral, Day 5, group average",22.4 g
same,Body weight,"LDLr0 mice, Low Dose T2 0.25 mg/kg daily oral, Day 5, individual animal, 0.25 mg/kg, in g (unit assumed)",22.0 and 22.2 and 23.0
same,Body weight (Ave),"LDLr0 mice, Low Dose T2 0.25 mg/kg daily oral, Day 6, group average",22.3 g
same,Body weight,"LDLr0 mice, Low Dose T2 0.25 mg/kg daily oral, Day 6, individual animal, 0.25 mg/kg, in g (unit assumed)",22.1 and 21.7 and 23.1
same,Body weight (Ave),"LDLr0 mice, Low Dose T2 0.25 mg/kg daily oral, Day 7, group average",22.2 g
same,Body weight,"LDLr0 mice, Low Dose T2 0.25 mg/kg daily oral, Day 7, individual animal, 0.25 mg/kg, in g (unit assumed)",22.4 and 20.6 and 23.6
same,Body weight (Ave),"LDLr+/− mice, High Dose T2 2.5 mg/kg daily oral, Day 1, group average",30.8 g
same,Body weight,"LDLr+/− mice, High Dose T2 2.5 mg/kg daily oral, Day 1, individual animal, 2.5 mg/kg, in g (unit assumed)",32.8 and 31.8 and 29.8 and 31.4 and 29.2 and 29.6
same,Body weight (Ave),"LDLr+/− mice, High Dose T2 2.5 mg/kg daily oral, Day 2, group average",31.3 g
same,Body weight,"LDLr+/− mice, High Dose T2 2.5 mg/kg daily oral, Day 2, individual animal, 2.5 mg/kg, in g (unit assumed)",33.3 and 34.5 and 29.8 and 31.0 and 29.1 and 29.9
same,Body weight (Ave),"LDLr+/− mice, High Dose T2 2.5 mg/kg daily oral, Day 3, group average",31.1 g
same,Body weight,"LDLr+/− mice, High Dose T2 2.5 mg/kg daily oral, Day 3, individual animal, 2.5 mg/kg",33.1 and 33.9 and 29.8 (2×) and 30.9 and 29.3
same,Body weight (Ave),"LDLr+/− mice, High Dose T2 2.5 mg/kg daily oral, Day 4, group average",29.8 g
same,Body weight,"LDLr+/− mice, High Dose T2 2.5 mg/kg daily oral, Day 4, individual animal, 2.5 mg/kg, in g (unit assumed)",32.1 and 33.0 and 29.0 and 30.1 and 27.9 and 26.8
